Where two headings read alike, the source gives them in different places.
Tested on: human Ewing's sarcoma SK-ES-1
Type: in vivo
Parameters: Tumor volume changes from baseline: Median (nMad): unit not given here
Protocol: This efficacy may be quantified, for example, as changes in tumor volume for each treated (T) and control (C) group, which are calculated for each animal and each day by subtracting the tumor volume on the day of first treatment (staging day) from the tumor volume on the specified observation day. This allows calculating the tumor growth inhibition: ΔT/ΔC=(median delta T/median delta C)×100. Individual tumor volume changes from baseline are thereafter analyzed by a non-parametric two-way ANOVA-TYPE (with factors: group and repeated days) followed by a post-hoc contrasts analysis, with Bonferroni-Holm adjustment for multiplicity, comparing all treated groups to the control group. […] A probability less than 5% (p<0.05) was considered as significant.
Based on the National Cancer Institute (NCl) standards, a ΔT/ΔC≦40% is the minimal level required to declare activity.
The tumor doubling time (in days; Td) was estimated from the plot of the log linear growth of the control group tumors in exponential growth (100 to 1000 mm^3 range) [T. H. Corbett et al., Cancer, 40: 2660-2680 (1977); F. M. Schabel et al., Cancer Drug Development, Part B, Methods in Cancer Research, 17: 3-51, New York, Academic Press Inc. (1979)].
This efficacy may also be quantified by the number of tumor regressions observed after therapy. Individual mice reporting a tumor volume ≦50% of the Day 0 measurement for two consecutive measurements over a seven day period were considered partial responders (PR). Individual mice lacking palpable tumors (<4×4 mm^2 for two consecutive measurements over a seven day period) were classified as complete responders (CR); a CR that persisted until study completion was considered a tumor-free survivor (TFS).
The efficacy of cabazitaxel in comparison with docetaxel on pediatric solid tumors was determined experimentally in the following manner:
The animals subjected to the experiment are subcutaneously grafted unilaterally with approximately 30 mg of a tumor fragment on day 0. The animals are implanted with a human tumor xenografted in immunocompromized mice. Several days post tumor implantation, mice are randomized according to their body weight to the different groups of treatments and controls. The animals are observed every day. The different animal groups are weighed daily during treatment until the maximum weight loss is reached and subsequent full weight recovery has occurred. The groups are then weighed once or twice a week until the end of the trial.
The tumors are measured 1 to 5 times a week, depending on the tumor doubling time, until the tumor reaches approximately 1,000 mm^3, or until the animal dies (if this occurs before the tumor reaches 1,000 mm^3). The animals are necropsied immediately after euthanasia or death.
The selected tumor model was a human Ewing's sarcoma SK-ES-1, xenografted in SCID mice [Fogh J. New York: Plenum Press, 1975].
Cabazitaxel and docetaxel were weighed for each treatment and dissolved in ethanol. Treatment solutions were prepared first by mixing 1 volume of ethanolic stock solution and 1 volume of polysorbate 80, then by adding 18 volumes of glucose 5% in water.
The Td in days was estimated from the plot of the log linear growth of the control group tumors in exponential growth (100 to 1,000 mm^3 range) and the number of tumor regressions observed after therapy.
The following end points have been used: • Toxicity was declared at dosages inducing ≧20% body weight loss or ≧10% drug death; • Relative tumor growth inhibition was determined on day 22 post tumor implantation when the median tumor size in the control group was 456 mm^3; • Antitumor efficacy was determined by calculating the ΔT/ΔC value in percent, according to the above-mentioned formula; • Tumor regressions (as explained above); • Statistical analysis performed (as explained above).

[1] = 3.5 mg/kg per injection (total 7.0) IV days 15; 19
[2] = 5.6 mg/kg per injection (total 11.2) IV days 15; 19
[3] = 5.6 mg/kg per injection (total 11.2) IV days 15; 19; listed as CABAZITAXEL
[4] = 9.0 mg/kg per injection (total 18) IV days 15; 19
[5] = 9.0 mg/kg per injection (total 18) IV days 15; 19; listed as CABAZITAXEL
[6] = 14.5 mg/kg per injection (total 29) IV days 15; 19
[7] = 14.5 mg/kg per injection (total 29) IV days 15; 19; listed as CABAZITAXEL

`CO[C@H]1C(=O)[C@]2(C)[C@@H](OC)C[C@H]3OC[C@@]3(OC(C)=O)[C@H]2[C@H](OC(=O)c2ccccc2)[C@]2(O)C[C@H](OC(=O)[C@H](O)[C@@H](NC(=O)OC(C)(C)C)c3ccccc3)C(C)=C1C2(C)C` [Cabazitaxel, 4α-acetoxy-2α-benzoyloxy-5β,20-epoxy-1β-hydroxy-7β,10β-dimethoxy-9-oxo-11-taxen-13α-yl (2R,3S)-3-tert-butoxycarbonyl-amino-2-hydroxy-3-phenylpropionate] was tested, and the “Average body weight change in % per mouse at nadir” value [1] was −4.4%, the Biological interpretation [1] was “active” and the Drug death [1] was 0/7. For the same compound, the “Regressions Complete” value [1] was 0/7, the “Regressions Partial” value [1] was 0/7 and the “Tumor free survivors at day 120” value [1] was 0/7. For the same compound, the day of nadir [1] was 16 days, the “ΔT/ΔC in % (day 22)” value [1] was 22% and the Biological interpretation (3.5 mg/kg per injection (total 7.0) IV days 15; 19; listed as CABAZITAXEL) was “Active”. The “Tumor volume changes from baseline: Median (nMad)” value (“Tumor volume changes from baseline” below) (3.5 mg/kg, day 19) was 32, the “Tumor volume changes from baseline” value (3.5 mg/kg, day 22) was 41 and the “Tumor volume changes from baseline” value (3.5 mg/kg, day 25) was 180. For the same compound, the “Tumor volume changes from baseline” value (3.5 mg/kg, day 28) was 499, the “Tumor volume changes from baseline” value (3.5 mg/kg; day 19) was 32 (207.6) and the “Tumor volume changes from baseline” value (3.5 mg/kg; day 22) was 41 (108.2). For the same compound, the “Tumor volume changes from baseline” value (3.5 mg/kg; day 25) was 180 (100.8), the “Tumor volume changes from baseline” value (3.5 mg/kg; day 28) was 499 (324.7) and the “Average body weight change in % per mouse at nadir” value [2] was −4.2%. For the same compound, the Biological interpretation [2] was “highly active”, the Drug death [2] was 0/7 and the “Regressions Complete” value [2] was 0/7. The “Regressions Partial” value [2] was 7/7, the “Tumor free survivors at day 120” value [2] was 0/7 and the day of nadir [2] was 16 days. For the same compound, the Biological interpretation [3] was “Highly Active”, the “ΔT/ΔC in % (day 22)” value [3] was less than 0% and the PR (5.6 mg/kg per injection IV days 15; 19) was 100%. The “Tumor volume changes from baseline” value (5.6 mg/kg, day 19) was −31, the “Tumor volume changes from baseline” value (5.6 mg/kg, day 22) was −126 and the “Tumor volume changes from baseline” value (5.6 mg/kg, day 25) was −157. For the same compound, the “Tumor volume changes from baseline” value (5.6 mg/kg, day 28) was −157, the “Tumor volume changes from baseline” value (5.6 mg/kg; day 19) was −31 (87.5) and the “Tumor volume changes from baseline” value (5.6 mg/kg; day 22) was −126 (86). For the same compound, the “Tumor volume changes from baseline” value (5.6 mg/kg; day 25) was −157 (81.5), the “Tumor volume changes from baseline” value (5.6 mg/kg; day 28) was −157 (81.5) and the “Tumor volume changes from baseline” value (5.6 mg/kg; day 32) was −128 (112.7). The “Tumor volume changes from baseline” value (5.6 mg/kg; day 35) was −157 (112.7), the “Average body weight change in % per mouse at nadir” value [4] was −6.3% and the Biological interpretation [4] was “highly active”. For the same compound, the Drug death [4] was 0/7, the “Regressions Complete” value [4] was 0/7 and the “Regressions Partial” value [4] was 7/7. For the same compound, the “Tumor free survivors at day 120” value [4] was 0/7, the day of nadir [4] was 16 days and the Biological interpretation [5] was “Highly Active”. For the same compound, the “ΔT/ΔC in % (day 22)” value [5] was less than 0%, the PR (9 mg/kg per injection IV days 15; 19) was 100% and the “Tumor volume changes from baseline” value (9 mg/kg, day 19) was 25. The “Tumor volume changes from baseline” value (9 mg/kg, day 22) was −137, the “Tumor volume changes from baseline” value (9 mg/kg, day 25) was −227 and the “Tumor volume changes from baseline” value (9 mg/kg, day 28) was −227. The “Tumor volume changes from baseline” value (9 mg/kg; day 19) was 25 (37.1), the “Tumor volume changes from baseline” value (9 mg/kg; day 22) was −137 (60.8) and the “Tumor volume changes from baseline” value (9 mg/kg; day 25) was −227 (100.8). The “Tumor volume changes from baseline” value (9 mg/kg; day 28) was −227 (100.8), the “Tumor volume changes from baseline” value (9 mg/kg; day 32) was −231 (78.6) and the “Tumor volume changes from baseline” value (9 mg/kg; day 35) was −231 (78.6). The “Average body weight change in % per mouse at nadir” value [6] was −7.1%, the Biological interpretation [6] was “highly active” and the Drug death [6] was 0/7. For the same compound, the “Regressions Complete” value [6] was 6/7, the “Regressions Partial” value [6] was 7/7 and the “Tumor free survivors at day 120” value [6] was 3/7. For the same compound, the day of nadir [6] was 20 days, the Biological interpretation [7] was “Highly Active” and the “ΔT/ΔC in % (day 22)” value [7] was less than 0%. For the same compound, the “Tumor volume changes from baseline” value (14.5 mg/kg, day 19) was −108, the “Tumor volume changes from baseline” value (14.5 mg/kg, day 22) was −203 and the “Tumor volume changes from baseline” value (14.5 mg/kg, day 25) was −221. The “Tumor volume changes from baseline” value (14.5 mg/kg, day 28) was −221, the “Tumor volume changes from baseline” value (14.5 mg/kg; day 19) was −108 (91.9) and the “Tumor volume changes from baseline” value (14.5 mg/kg; day 22) was −203 (87.5). For the same compound, the “Tumor volume changes from baseline” value (14.5 mg/kg; day 25) was −221 (81.5), the “Tumor volume changes from baseline” value (14.5 mg/kg; day 28) was −221 (81.5) and the “Tumor volume changes from baseline” value (14.5 mg/kg; day 32) was −221 (87.5). For the same compound, the “Tumor volume changes from baseline” value (14.5 mg/kg; day 35) was −221 (87.5), the “Tumor volume changes from baseline” value (14.5 mg/kg; day 39) was −221 (108.2) and the “Tumor volume changes from baseline” value (14.5 mg/kg; day 41) was −221 (140.8). The “Tumor volume changes from baseline” value (14.5 mg/kg; day 43) was −221 (140.8), the “Tumor volume changes from baseline” value (14.5 mg/kg; day 45) was −144 (222.4) and the “antitumor activity compared with docetaxel” value (conclusion of example 3) was “more also active than docetaxel”.
